We go through 26 compounds from patent US8163728B2, “Pyrazoles” (Hoffmann-La Roche Inc., priority 2009, dated 2012).

This experiment addresses T1, GABA A α5 (Homo sapiens, UniProt P18507+P31644).
T1 construct: expressed in transfected cells; host or cells: HEK293 cells, transiently transfected; membranes prepared from cell pellets
In words: [3H]flumazenil competition binding, human GABA A α5β3γ2 receptors in HEK293 cell membranes. Conditions: human receptor α5β3γ2 transiently transfected in HEK293; 0.5 nM [3H]flumazenil; 1 hour at 4° C.; means of two determinations; read-out: hKi GABA A α5. A digest of the protocol:
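Competition with [3H]flumazenil for binding to membranes of HEK293 cells transiently expressing human α5β3γ2, in Krebs-tris buffer pH 7.5. Incubated to equilibrium 1 h at 4 °C, filtered and scintillation-counted; Ki values are means of two determinations.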

For the compound `Cc1onc(-c2ccc(F)cc2)c1COc1cc(C(=O)NCC(O)C(F)(F)F)n(C)n1` (single isomer, unassigned; (+)) [Example 67, (+)-5-[3-(4-Fluoro-phenyl)-5-methyl-isoxazol-4-ylmethoxy]-2-methyl-2H-pyrazole-3-carboxylic acid ((S or R)-3,3,3-trifluoro-2-hydroxy-propyl)-amide or enantiomer], the Ki stood at 2.4 nM.
On to `Cc1onc(-c2ccc(F)cc2)c1COc1cc(C(=O)N2CC(O)C2)n(C)n1` [Example 71, {5-[3-(4-Fluoro-phenyl)-5-methyl-isoxazol-4-ylmethoxy]-2-methyl-2H-pyrazol-3-yl}-(3-hydroxy-azetidin-1-yl)-methanone], for which the Ki is 16.5 nM.
Take `Cc1onc(-c2ccc(F)cc2)c1/C=C\c1cc(C(=O)NC(C)CO)n(C)n1` (centres unmarked) [Example 121, 5-{(Z)-2-[3-(4-Fluoro-phenyl)-5-methyl-isoxazol-4-yl]vinyl}-2-methyl-2H-pyrazole-3-carboxylic acid (2-hydroxy-1-methyl-ethyl)-amide]: the Ki was determined as 49.6 nM.
With `Cc1onc(-c2ccc(F)cn2)c1CNc1cc(C(=O)NC2CCOCC2)n(C)n1` [Example 164, 3-((3-(5-Fluoropyridin-2-yl)-5-methylisoxazol-4-yl)methylamino)-1-methyl-N-(tetrahydro-2H-pyran-4-yl)-1H-pyrazole-5-carboxamide] the figure was 11.9 nM.
`Cn1nc(OCc2c(-c3ccc(Cl)cc3)noc2CO)cc1C(=O)NC1CCOCC1` [Example 101, 5-[3-(4-Chloro-phenyl)-5-hydroxymethyl-isoxazol-4-ylmethoxy]-2-methyl-2H-pyrazole-3-carboxylic acid (tetrahydro-pyran-4-yl)-amide]: the Ki was 0.9 nM.
As to `Cc1onc(-c2ccccc2)c1COc1cc(C(=O)NC(C)C)[nH]n1` [Example 2, 5-(5-Methyl-3-phenyl-isoxazol-4-ylmethoxy)-2H-pyrazole-3-carboxylic acid isopropylamide], the Ki amounted to 32.4 nM.
As to `Cc1onc(-c2ccccn2)c1CNc1cc(C(=O)NC2CCOCC2)n(C)n1` [Example 160, 2-Methyl-5-[(5-methyl-3-pyridin-2-yl-isoxazol-4-ylmethyl)-amino]-2H-pyrazole-3-carboxylic acid (tetrahydro-pyran-4-yl)-amide], the Ki turned out to be 25.4 nM.
As for `Cc1onc(-c2ccc(F)cc2)c1COc1cc(C(=O)N2CC3(COC3)C2)n(C)n1` [Example 77, {5-[3-(4-Fluoro-phenyl)-5-methyl-isoxazol-4-ylmethoxy]-2-methyl-2H-pyrazol-3-yl}-(2-oxa-6-aza-spiro[3.3]hept-6-yl)-methanone], the figure is 45.8 nM.
Turning to `Cn1nc(OCc2c(-c3ccc(Cl)cc3)noc2CO)cc1C(=O)NCC(F)(F)C(F)(F)F` [Example 104, 5-[3-(4-Chloro-phenyl)-5-hydroxymethyl-isoxazol-4-ylmethoxy]-2-methyl-2H-pyrazole-3-carboxylic acid (2,2,3,3,3-pentafluoro-propyl)-amide], the Ki turned out to be 6.6 nM.
For `Cc1onc(-c2ccc(F)cc2)c1CNc1cc(C(=O)NCC(C)(C)O)[nH]n1` [Example 152, 5-{[3-(4-Fluoro-phenyl)-5-methyl-isoxazol-4-ylmethyl]-amino}-2H-pyrazole-3-carboxylic acid (2-hydroxy-2-methyl-propyl)-amide], the Ki worked out at 20.9 nM.
With `Cc1onc(-c2ccc(F)cc2)c1CNc1cc(C(N)=O)[nH]n1` [Example 153, 5-{[3-(4-Fluoro-phenyl)-5-methyl-isoxazol-4-ylmethyl]-amino}-2H-pyrazole-3-carboxylic acid amide] the figure was 43.4 nM; with `Cc1onc(-c2ccc(F)cc2)c1COc1cc(C(=O)NCC(C)(C)O)n(C)n1` [Example 66, 5-[3-(4-Fluoro-phenyl)-5-methyl-isoxazol-4-ylmethoxy]-2-methyl-2H-pyrazole-3-carboxylic acid (2-hydroxy-2-methyl-propyl)-amide], 6.5 nM; with `Cc1onc(-c2ccccn2)c1CNc1cc(C(=O)NC(C)C)n(C)n1` [Example 159, N-isopropyl-1-methyl-3-((5-methyl-3-(pyridin-2-yl)isoxazol-4-yl)methylamino)-1H-pyrazole-5-carboxamide], 39.9 nM.
As for `Cc1onc(-c2ccc(F)cc2)c1/C=C\c1cc(C(=O)NC(C)C)n(C)n1` [Example 120, 5-{(Z)-2-[3-(4-Fluoro-phenyl)-5-methyl-isoxazol-4-yl]-vinyl}-2-methyl-2H-pyrazole-3-carboxylic acid isopropylamide], the figure is 28 nM; as for `Cc1onc(-c2ccc(F)cn2)c1CNc1cc(C(=O)NC2CC2)n(C)n1` [Example 165, N-Cyclopropyl-3-((3-(5-fluoropyridin-2-yl)-5-methylisoxazol-4-yl)methylamino)-1-methyl-1H-pyrazole-5-carboxamide], 41.1 nM.
`Cc1onc(-c2ccccn2)c1COc1cc(C(=O)NC(C)C)n[nH]1` [Example 14, 5-(5-Methyl-3-pyridin-2-yl-isoxazol-4-ylmethoxy)-1H-pyrazole-3-carboxylic acid isopropylamide]: the Ki was found to be 9.3 nM.
As for `CCCCc1noc(C)c1COc1cc(C(=O)N[C@@H](C)CO)[nH]n1` (single isomer, unassigned) [Example 30], the Ki was 25.2 nM.
With `Cc1onc(-c2ccc(F)cc2)c1COc1cc(C(=O)NC2CCOC2)n(C)n1` (racemic) [Example 72, Rac-5-[3-(4-Fluoro-phenyl)-5-methyl-isoxazol-4-ylmethoxy]-2-methyl-2H-pyrazole-3-carboxylic acid (tetrahydro-furan-3-yl)-amide] the figure was 1.5 nM.
Take `CC(=O)NCCNC(=O)c1cc(OCc2c(-c3ccc(F)cc3)noc2C)nn1C` [Example 64, 5-[3-(4-Fluoro-phenyl)-5-methyl-isoxazol-4-ylmethoxy]-2-methyl-2H-pyrazole-3-carboxylic acid (2-acetylamino-ethyl)-amide]: the Ki stood at 16.1 nM.
With `Cc1onc(-c2ccc(F)cc2)c1/C=C/c1cc(C(N)=O)[nH]n1` [Example 142, 5-{(E)-2-[3-(4-Fluoro-phenyl)-5-methyl-isoxazol-4-yl]vinyl}-2H-pyrazole-3-carboxylic acid amide] the figure was 4.8 nM; with `Cn1nc(OCc2c(-c3ccc(F)cc3)noc2CO)cc1C(=O)NC1CCOCC1` [Example 91, 5-[3-(4-Fluoro-phenyl)-5-hydroxymethyl-isoxazol-4-ylmethoxy]-2-methyl-2H-pyrazole-3-carboxylic acid (tetrahydro-pyran-4-yl)-amide], 1 nM.
In the case of `Cc1onc(-c2ccc(F)cc2)c1/C=C/c1cc(C(=O)N2CCOCC2)[nH]n1` [Example 132, (5-{(E)-2-[3-(4-Fluoro-phenyl)-5-methyl-isoxazol-4-yl]vinyl}-2H-pyrazol-3-yl)-morpholin-4-yl-methanone], the Ki worked out at 50.6 nM.
`Cc1onc(-c2ccccc2)c1COc1cc(C(=O)NC2CCOC2)n(C)n1` (racemic) [Example 43, Rac-2-Methyl-5-(5-methyl-3-phenyl-isoxazol-4-ylmethoxy)-2H-pyrazole-3-carboxylic acid (tetrahydro-furan-3-yl)-amide]: the Ki was 9.7 nM.
With `Cc1onc(-c2ccc(F)cn2)c1COc1cc(C(=O)NN(C)C)n(C)n1` [Example 82, 5-[3-(5-Fluoro-pyridin-2-yl)-5-methyl-isoxazol-4-ylmethoxy]-2-methyl-2H-pyrazole-3-carboxylic acid N′,N′-dimethyl-hydrazide] the figure was 29.5 nM; with `Cc1onc(-c2ccc(F)cc2)c1/C=C/c1cc(C(=O)NC(C)CO)[nH]n1` (centres unmarked) [Example 139, 5-{(E)-2-[3-(4-Fluoro-phenyl)-5-methyl-isoxazol-4-yl]-vinyl}-2H-pyrazole-3-carboxylic acid (2-hydroxy-1-methyl-ethyl)-amide], 3 nM.
With `Cc1onc(-c2ccccc2)c1COc1cc(C(=O)N2CCOCC2)[nH]n1` [Example 1, [5-(5-Methyl-3-phenyl-isoxazol-4-ylmethoxy)-2H-pyrazol-3-yl]morpholin-4-yl-methanone] the figure was 41.3 nM.
